What was measured:
redroot pigweed = test: Test Example 3: foliar treatment of field; type: in vivo, Amaranthus retroflexus; conditions: foliar spray, dosage 16 g/ha, 25 days after application
Method: (§1) A plastic pot having longer side of 27 cm, shorter side of 20 cm and depth of 7.5 cm was filled with soil and then seeded with ivyleaf morningglory (Ipomoea hederacea) and common cocklebur (Xanthium pensylvanicum). These test plants were grown in a greenhouse for 10 days. Then, therein, transplanted were common lambsquarters (Chenopodium album), redroot pigweed and giant foxtail (Setaria faberi) which had been seeded and grown for 14 days in a green house in advance. The test plants were further grown in the greenhouse for 8 days. After then, present compound 1-12 was formulated into an emulsifiable concentrate according to Formulation Example 2 and then diluted to the prescribed amount with water containing a spreading agent and the dilution was uniformly sprayed over the foliage of the test plants with a sprayer at a rate of 1000 liters per hectare. After the application, the test plants were grown in the greenhouse for 25 days, and the herbicidal activity was examined.

[1] = test system: common lambsquarters (Chenopodium album); test: Test Example 3: foliar treatment of field; type: in vivo; conditions: foliar spray, dosage 16 g/ha, 25 days after application
Method: as §1

[2] = test system: common cocklebur (Xanthium pensylvanicum); test: Test Example 3: foliar treatment of field; type: in vivo; conditions: foliar spray, dosage 16 g/ha, 25 days after application
Method: as §1

[3] = test system: ivyleaf morningglory (Ipomoea hederacea); test: Test Example 3: foliar treatment of field; type: in vivo; conditions: foliar spray, dosage 16 g/ha, 25 days after application
Method: as §1

[4] = test system: giant foxtail (Setaria faberi); test: Test Example 3: foliar treatment of field; type: in vivo; conditions: foliar spray, dosage 16 g/ha, 25 days after application
Method: as §1

[5] = test system: velvetleaf (Abutilon theophrasti); test: Test Example 4: soil surface treatment of field; type: in vivo; conditions: soil surface spray, dosage 250 g/ha, 25 days after application
Excerpt: (§2) A plastic pot having longer side of 32 cm, shorter side of 22 cm and depth of 8 cm was filled with soil and then seeded with hemp sesbania (Sesbania exaltata), black nightshade (Solanum nigrum), velvetleaf (Abutilon theophrasti), pale smartweed (Polygonum lapathifolium), common lambsquarters (Chenopodium album) and giant foxtail (Setaria faberi). Then, the present compound 1-12 was formulated into an emulsifiable concentrate according to Formulation Example 2 and then diluted to the prescribed amount with water, and the dilution was uniformly sprayed over the surface of the soil with a sprayer at a rate of 1000 liters per hectare. After the application, the test plants were grown in the greenhouse for 25 days, and the herbicidal activity was examined.

[6] = test system: common lambsquarters (Chenopodium album); test: Test Example 4: soil surface treatment of field; type: in vivo; conditions: soil surface spray, dosage 250 g/ha, 25 days after application
Excerpt: as §2

[7] = test system: pale smartweed (Polygonum lapathifolium); test: Test Example 4: soil surface treatment of field; type: in vivo; conditions: soil surface spray, dosage 250 g/ha, 25 days after application
Excerpt: as §2

[8] = test system: black nightshade (Solanum nigrum); test: Test Example 4: soil surface treatment of field; type: in vivo; conditions: soil surface spray, dosage 250 g/ha, 25 days after application
Excerpt: as §2

[9] = test system: giant foxtail (Setaria faberi); test: Test Example 4: soil surface treatment of field; type: in vivo; conditions: soil surface spray, dosage 250 g/ha, 25 days after application
Excerpt: as §2

[10] = test system: hemp sesbania (Sesbania exaltata); test: Test Example 4: soil surface treatment of field; type: in vivo; conditions: soil surface spray, dosage 250 g/ha, 25 days after application
Excerpt: as §2

[11] = test system: velvetleaf (Abutilon theophrasti); test: Test Example 1: foliar treatment of field; type: in vivo; conditions: foliar spray, dosage 125 g/ha, 16 days after application
Method: (§3) A cylindrical plastic pot having a diameter of 10 cm and a depth of 10 cm was filled with soil and then seeded with ivyleaf morningglory (Ipomoea hederacea) and velvetleaf (Abutilon theophrasti). These test plants were grown in a greenhouse for 10 days. Then, each of compounds 1-2, 1-42, 1-45, 1-48, 2-2, 2-7, 2-42, 2-45, 3-2, 3-12, 4-7, 4-85, 5-12-R, 5-12-S, 5-17, 6-2, 7-2, 7-6, 7-8, 7-12, 7-48, 7-50, 7-84, 7-118, 7-119, 7-125, 9-7, 9-27 and 9-45 was formulated into an emulsifiable concentrate according to Formulation Example 2 and then diluted to the prescribed amount with water containing a spreading agent and the dilution was uniformly sprayed over the foliage of the test plants with a sprayer at a rate of 1000 liters per hectare. After the application, the test plants were grown in the greenhouse for 16 days, and the herbicidal activity was determined.

[12] = test system: ivyleaf morningglory (Ipomoea hederacea); test: Test Example 1: foliar treatment of field; type: in vivo; conditions: foliar spray, dosage 125 g/ha, 16 days after application
Method: as §3

[13] = test system: barnyardgrass (Echinochloa crus-galli); test: Test Example 7: foliar spray, herbicidal activity index; type: in vivo; set-up: key: “0” means that there was no or little difference in the degree of germination or growth between the treated and the untreated tested plants at the time of examination; “10” means that the test plants died complete or their germination or growth was completely inhibited; conditions: 4 days after application, index 0-10
Method: (§4) A plastic pot having longer side of 27 cm, shorter side of 19 cm and depth of 7 cm was filled with soil and then seeded with large crabgrass (Digitaria sanguinalis) and giant foxtail (Setaria faberi). Nine days after, barnyardgrass (Echinochloa crus-galli) was seeded therein and grown for 15 days in a greenhouse. Further, a plastic pot having longer side of 16.5 cm, shorter side of 12 cm and depth of 7 cm was filled with soil and then seeded with wild oat (Avena fatua), and grown for 18 days in a greenhouse. Then, each of the present compound 1-45 and B was formulated into an emulsifiable concentrate according to Formulation Example 2 and then diluted to the prescribed amount with water containing a spreading agent and the dilution was uniformly sprayed over the foliage of the test plants with a sprayer at a rate of 1000 liters per hectare. After the application, the test plants were grown in the greenhouse for 4 days, and the herbicidal activity was examined. (In the Table 13, the test plants are shown as follows.
(§5) Barnyardgrass: B, Large crabgrass: LC, Giant foxtail: GF, Wild oat: W

[14] = test system: large crabgrass (Digitaria sanguinalis); test: as above; type: in vivo; set-up: key: “0” means that there was no or little difference in the degree of germination or growth between the treated and the untreated tested plants at the time of examination; “10” means that the test plants died complete or their germination or growth was completely inhibited; conditions: 4 days after application, index 0-10
Method: as §4, §5

[15] = test system: giant foxtail (Setaria faberi); test: as above; type: in vivo; set-up: key: “0” means that there was no or little difference in the degree of germination or growth between the treated and the untreated tested plants at the time of examination; “10” means that the test plants died complete or their germination or growth was completely inhibited; conditions: 4 days after application, index 0-10
Method: as §4, §5

wild oat (Avena fatua) [16] = test: as above; type: in vivo; conditions: 4 days after application, index 0-10
Method: as §4, §5

[17] = test system: barnyardgrass (Echinochloa crus-galli); test: Test Example 6: foliar spray, herbicidal activity index; type: in vivo; set-up: key: “0” means that there was no or little difference in the degree of germination or growth between the treated and the untreated tested plants at the time of examination; “10” means that the test plants died complete or their germination or growth was completely inhibited; conditions: 4 days after application, index 0-10
Method: as §4, with “1-67” for “1-45”, “A” for “B”, “1000liters” for “1000 liters”, “12,” for “13,”
as §5

[18] = test system: giant foxtail (Setaria faberi); test: as above; type: in vivo; set-up: key: “0” means that there was no or little difference in the degree of germination or growth between the treated and the untreated tested plants at the time of examination; “10” means that the test plants died complete or their germination or growth was completely inhibited; conditions: 4 days after application, index 0-10
Method: as §4, with “1-67” for “1-45”, “A” for “B”, “1000liters” for “1000 liters”, “12,” for “13,”
as §5

[19] = test system: large crabgrass (Digitaria sanguinalis); test: as above; type: in vivo; conditions: 4 days after application, index 0-10
Method: as §4, with “1-67” for “1-45”, “A” for “B”, “1000liters” for “1000 liters”, “12,” for “13,”
as §5

wild oat (Avena fatua) [20] = test: as above; type: in vivo; conditions: 4 days after application, index 0-10
Method: as §4, with “1-67” for “1-45”, “A” for “B”, “1000liters” for “1000 liters”, “12,” for “13,”
as §5

[21] = test system: large crabgrass (Digitaria sanguinalis); test: Test Example 8: foliar spray, herbicidal activity index; type: in vivo; set-up: key: “0” means that there was no or little difference in the degree of germination or growth between the treated and the untreated tested plants at the time of examination; “10” means that the test plants died complete or their germination or growth was completely inhibited; conditions: foliar spray 373 liters per hectare, examined after 4 days, index 0-10
Method: (§6) A plastic pot having longer side of 16.5 cm, shorter side of 12 cm and depth of 7 cm was filled with soil and then seeded with large crabgrass (Digitaria sanguinalis), giant foxtail (Setaria faberi) and johnsongrass (Sorghum halepense). These test plants were grown in a greenhouse for 25 days. Then, each of the present compound 2-52 and C was formulated into an emulsifiable concentrate according to Formulation Example 2 and then diluted to the prescribed amount with water containing a spreading agent and the dilution was uniformly sprayed over the foliage of the test plants with a sprayer at a rate of 373 liters per hectare. After the application, the test plants were grown in the greenhouse for 4 days, and the herbicidal activity was examined. (In the Table 14, the test plants are shown as follows.
(§7) Large crabgrass: LC, Giant foxtail: GF, Johnsongrass: J

[22] = test system: johnsongrass (Sorghum halepense); test: as above; type: in vivo; set-up: key: “0” means that there was no or little difference in the degree of germination or growth between the treated and the untreated tested plants at the time of examination; “10” means that the test plants died complete or their germination or growth was completely inhibited; conditions: foliar spray 373 liters per hectare, examined after 4 days, index 0-10
Method: as §6, §7

[23] = test system: giant foxtail (Setaria faberi); test: as above; type: in vivo; set-up: key: “0” means that there was no or little difference in the degree of germination or growth between the treated and the untreated tested plants at the time of examination; “10” means that the test plants died complete or their germination or growth was completely inhibited; conditions: foliar spray 373 liters per hectare, examined after 4 days, index 0-10
Method: as §6, §7

COC(=O)C(C)Oc1cnc(Oc2cc(-n3c(=O)cc(C(F)(F)F)n(C)c3=O)c(F)cc2Cl)nc1 (centres unmarked) [Compound 1-12, methyl 2-([2-{2-chloro-4-fluoro-5-[3-methyl-2,6-dioxo-4-(trifluoromethyl)-1,2,3,6-tetrahydropyrimidin-1-yl]phenoxy}pyrimidin-5-yl]oxy)propionate]
growth of redroot pigweed (herbicidal activity) (redroot pigweed): completely controlled
growth of common lambsquarters (herbicidal activity) [1]: completely controlled
growth of common cocklebur (herbicidal activity) [2]: completely controlled
growth of ivyleaf morningglory (herbicidal activity) [3]: completely controlled
growth of giant foxtail (herbicidal activity) [4]: completely controlled
growth of velvetleaf (herbicidal activity) [5]: completely controlled
growth of common lambsquarters (herbicidal activity) [6]: completely controlled
growth of pale smartweed (herbicidal activity) [7]: completely controlled
growth of black nightshade (herbicidal activity) [8]: completely controlled
growth of giant foxtail (herbicidal activity) [9]: completely controlled
growth of hemp sesbania (herbicidal activity) [10]: completely controlled

COC(=O)COc1cc(OC)nc(Oc2cc(-n3c(=O)cc(C(F)(F)F)n(C)c3=O)c(F)cc2Cl)n1 [Compound 1-45, 2-{2-chloro-4-fluoro-5-[3-methyl-2,6-dioxo-4-(trifluoromethyl)-1,2,3,6-tetrahydropyrimidin-1-yl]phenoxy}-6-methoxy-4-(methoxycarbonyl)methoxypyrimidine]
growth of velvetleaf (herbicidal activity) [11]: completely controlled
growth of ivyleaf morningglory (herbicidal activity) [12]: completely controlled
Herbicidal activity B ([13]; dosage 32 g/ha): 10
Herbicidal activity B ([13]; dosage 125 g/ha): 10
Herbicidal activity LC ([14]; dosage 32 g/ha): 10
Herbicidal activity LC ([14]; dosage 125 g/ha): 10
Herbicidal activity GF ([15]; dosage 32 g/ha): 10
Herbicidal activity GF ([15]; dosage 125 g/ha): 10
Herbicidal activity W (wild oat (Avena fatua) [16]; dosage 32 g/ha): 9
Herbicidal activity W (wild oat (Avena fatua) [16]; dosage 125 g/ha): 9

COC(=O)COc1cc(OC)nc(Nc2cc(-n3c(=O)cc(C(F)(F)F)n(C)c3=O)c(F)cc2Cl)n1 [Compound 1-67, 2-{2-chloro-4-fluoro-5-[3-methyl-2,6-dioxo-4-(trifluoromethyl)-1,2,3,6-tetrahydropyrimidin-1-yl]phenylamino}-6-methoxy-4-(methoxycarbonyl)methoxypyrimidine]
Herbicidal activity B ([17]; dosage 32 g/ha): 10
Herbicidal activity B ([17]; dosage 125 g/ha): 10
Herbicidal activity GF ([18]; dosage 32 g/ha): 10
Herbicidal activity GF ([18]; dosage 125 g/ha): 10
Herbicidal activity LC ([19]; dosage 32 g/ha): 9
Herbicidal activity LC ([19]; dosage 125 g/ha): 9
Herbicidal activity W (wild oat (Avena fatua) [20]; dosage 32 g/ha): 8
Herbicidal activity W (wild oat (Avena fatua) [20]; dosage 125 g/ha): 9

COC(=O)C(C)Nc1cccnc1Oc1cc(-n2c(=O)cc(C(F)(F)F)n(C)c2=O)c(F)cc1Cl (centres unmarked) [Compound 2-52, 2-{2-chloro-4-fluoro-5-[3-methyl-2,6-dioxo-4-(trifluoromethyl)-1,2,3,6-tetrahydropyrimidin-1-yl]phenoxy}-3-{1-(methoxycarbonyl)ethylamino}pyridine]
Herbicidal activity LC ([21]; dosage 32 g/ha): 9
Herbicidal activity LC ([21]; dosage 125 g/ha): 10
Herbicidal activity J ([22]; dosage 32 g/ha): 10
Herbicidal activity J ([22]; dosage 125 g/ha): 10
Herbicidal activity GF ([23]; dosage 32 g/ha): 9
Herbicidal activity GF ([23]; dosage 125 g/ha): 10
